{"source": "paper PMC7676912", "about": "“Guanosine Tetraphosphate Has a Similar Affinity for Each of Its Two Binding Sites on Escherichia coli RNA Polymerase” (Frontiers in Microbiology, 2020)", "assay_in_all_cases": "DRaCALA, one-site saturation fit", "type_in_all_cases": "binding", "key": {"[1]": {"target": "T1, wild-type RNAP with DksA (Sites 1 and 2) (Escherichia coli, UniProt P0A800+P0A8T7+P0ABS1, P0ABS1:K98A)", "T1 construct": "gene rpoZ; recombinant core RNAP saturated with omega plus saturating purified DksA; with DNA-directed RNA polymerase subunit alpha; DNA-directed RNA polymerase subunit beta"}, "[2]": {"target": "T2, wild-type RNAP-GreB complex (Escherichia coli, UniProt P0A800+P0A8T7)", "T2 construct": "gene rpoZ; recombinant core RNAP saturated with omega plus purified GreB; ppGpp at Site 1; with DNA-directed RNA polymerase subunit alpha; DNA-directed RNA polymerase subunit beta; Transcription elongation factor GreB", "details": "read-out: Kd,app"}, "[3]": {"target": "T3, wild-type RNAP (without DksA; Site 1 only) (Escherichia coli, UniProt P0A800+P0A8T7)", "T3 construct": "gene rpoZ; recombinant core RNAP, alpha, beta, beta' from one plasmid and omega from a second plasmid, omega saturating; with DNA-directed RNA polymerase subunit alpha; DNA-directed RNA polymerase subunit beta", "details": "read-out: Kd,app"}, "[4]": {"target": "T4, wild-type RNAP-TraR complex (Escherichia coli, UniProt P0A800+P0A8T7)", "T4 construct": "gene rpoZ; recombinant core RNAP saturated with omega plus purified TraR (encoded by F element); ppGpp at Site 1; with DNA-directed RNA polymerase subunit alpha; DNA-directed RNA polymerase subunit beta; Protein TraR", "details": "Site 1; TraR present; labelled compound [32P]-ppGpp; unreliable (printed 'at least'; curve did not plateau); non-equilibrium assay"}, "[5]": {"target": "T5, wild-type RNAP with DksA (Sites 1 and 2) (Escherichia coli, UniProt P0A800+P0A8T7+P0ABS1)", "T5 construct": "gene rpoZ; recombinant core RNAP saturated with omega plus saturating purified DksA; with DNA-directed RNA polymerase subunit alpha; DNA-directed RNA polymerase subunit beta", "details": "read-out: Kd,app"}, "[6]": {"target": "T6, wild-type RNAP with DksA (Sites 1 and 2) (Escherichia coli, UniProt P0A800+P0A8T7+P0ABS1, P0ABS1:R129A)", "T6 construct": "gene rpoZ; recombinant core RNAP saturated with omega plus saturating purified DksA; with DNA-directed RNA polymerase subunit alpha; DNA-directed RNA polymerase subunit beta"}, "[7]": {"target": "T7, wild-type RNAP (without DksA; Site 1 only) (Escherichia coli, UniProt P0A800+P0A8T7, P0A800:DEL2-5)", "T7 construct": "gene rpoZ; recombinant core RNAP, alpha, beta, beta' from one plasmid and omega from a second plasmid, omega saturating; with DNA-directed RNA polymerase subunit alpha; DNA-directed RNA polymerase subunit beta"}, "[8]": {"target": "T8, RNAPΔω (no DksA; lacking Sites 1 and 2) (Escherichia coli, UniProt P0A8T7)", "T8 construct": "gene rpoC; RNAP lacking omega, purified from a ΔrpoZ strain, no DksA added; with DNA-directed RNA polymerase subunit alpha; DNA-directed RNA polymerase subunit beta", "details": "read-out: Kd,app"}, "[9]": {"target": "T9, RNAPΔω with DksA (Site 2 only) (Escherichia coli, UniProt P0A8T7+P0ABS1)", "T9 construct": "gene rpoC; with DNA-directed RNA polymerase subunit alpha; DNA-directed RNA polymerase subunit beta", "details": "read-out: Kd,app"}}}
{"compound": "Nc1nc2c(ncn2[C@@H]2O[C@H](COP(=O)(O)OP(=O)(O)O)[C@@H](OP(=O)(O)OP(=O)(O)O)[C@H]2O)c(=O)[nH]1", "note": "[ppGpp, guanosine 5'-diphosphate 3'-diphosphate]", "values": [{"measurement": "Kd", "setting": "[1]", "value": "~1.3", "unit": "µM"}, {"measurement": "Kd", "setting": "[2]", "value": "~6.4", "unit": "µM"}, {"measurement": "Kd", "setting": "[3]", "value": "6.1 ± 1.3", "unit": "µM"}, {"measurement": "Kd,app", "setting": "[4]", "value": "> 4.2 ± 0.6", "unit": "µM"}, {"measurement": "Kd", "setting": "[5]", "value": "3.3 ± 1.2", "unit": "µM"}, {"measurement": "Kd", "setting": "[6]", "value": "~1.8", "unit": "µM"}, {"measurement": "Kd", "setting": "[7]", "value": "> 100", "unit": "µM"}, {"measurement": "Kd", "setting": "[8]", "value": "> 100", "unit": "µM"}, {"measurement": "Kd", "setting": "[9]", "value": "7.9 ± 1.3", "unit": "µM"}]}
